Measurements taken from PubChem BioAssay AID248 (DTP/NCI, 2004).
Where “and” joins values, the source holds several entries; their conditions need not be identical. Equal values may be shown once. Toxic doses and inconclusive results are not listed. No stated cut-off is given here; in the data, active means T/C of 150% or more; inactive means T/C below 125%.

Test system: L1210 leukemia ip in BDF1 mice, survival T/C
Test: NCI In Vivo Anticancer Drug Screen. Data for tumor model L1210 Leukemia (intraperitoneal) in B6D2F1 (BDF1) mice
Conditions: higher = longer survival
In short: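 Transplantable tumor model; survival measured in treated vs vehicle control mice. Value = treated/control.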

[1] = endpoint: mean survival time, dose: 100.0 mg/kg/injection, schedule: Q04DX003 (ip), vehicle: Klucel (hydroxypropylcellulose) (HPC)
[2] = endpoint: mean survival time, dose: 200.0 mg/kg/injection, schedule: Q04DX003 (ip), vehicle: Klucel (hydroxypropylcellulose) (HPC)
[3] = endpoint: mean survival time, dose: 20.0 mg/kg/injection, schedule: Q01DX Z (ip), vehicle: carboxymethylcellulose (CMC)
[4] = endpoint: mean survival time, dose: 100.0 mg/kg/injection, schedule: Q01DX001 (ip), vehicle: saline
[5] = endpoint: mean survival time, dose: 200.0 mg/kg/injection, schedule: Q01DX001 (ip), vehicle: saline
[6] = endpoint: mean survival time, dose: 400.0 mg/kg/injection, schedule: Q01DX001 (ip), vehicle: saline
[7] = endpoint: mean survival time, dose: 100.0 mg/kg/injection, schedule: Q04DX003 (ip), vehicle: saline with Tween-80
[8] = endpoint: mean survival time, dose: 200.0 mg/kg/injection, schedule: Q04DX003 (ip), vehicle: saline with Tween-80
[9] = endpoint: mean survival time, dose: 400.0 mg/kg/injection, schedule: Q04DX003 (ip), vehicle: saline with Tween-80

Measured: T/C

CS(=O)(=O)Oc1nn2c(OS(C)(=O)=O)nnc2s1
inactive: endpoint: mean survival time, dose: 5.0 mg/kg/injection, schedule: Q01DX001 (ip), vehicle: saline 104 % of control | endpoint: mean survival time, dose: 8.8 mg/kg/injection, schedule: Q01DX001 (ip), vehicle: saline 101 % of control and 90 % of control | endpoint: mean survival time, dose: 10.0 mg/kg/injection, schedule: Q01DX001 (ip), vehicle: saline 109 % of control | endpoint: mean survival time, dose: 13.3 mg/kg/injection, schedule: Q01DX001 (ip), vehicle: saline 98 % of control and 110 % of control | endpoint: mean survival time, dose: 20.0 mg/kg/injection, schedule: Q01DX001 (ip), vehicle: saline 98 % of control and 104 % of control | endpoint: mean survival time, dose: 30.0 mg/kg/injection, schedule: Q01DX001 (ip), vehicle: saline 104 % of control

COc1ccc(CN2CCCN(Cc3ccc(OC)cc3OC)C2c2ccc(OC)cc2OC)c(OC)c1
inactive: endpoint: mean survival time, dose: 50.0 mg/kg/injection, schedule: Q01DX001 (ip), vehicle: carboxymethylcellulose (CMC) 93 % of control | endpoint: mean survival time, dose: 100.0 mg/kg/injection, schedule: Q01DX001 (ip), vehicle: carboxymethylcellulose (CMC) 104 % of control | endpoint: mean survival time, dose: 200.0 mg/kg/injection, schedule: Q01DX001 (ip), vehicle: carboxymethylcellulose (CMC) 93 % of control | endpoint: mean survival time, dose: 400.0 mg/kg/injection, schedule: Q01DX001 (ip), vehicle: carboxymethylcellulose (CMC) 98 % of control

O=C1NC(=O)C2(CCc3ccc(N(CCCl)CCCl)cc32)N1 (stereo not given)
inactive: endpoint: median survival time, dose: 100.0 mg/kg/injection, schedule: Q01DX009 (ip), vehicle: Klucel (hydroxypropylcellulose) (HPC) 105 % of control

COc1ccc2c3c(ccc2c1)C1=C(C(=O)O)CC(=O)C1(C)CC3 (stereo not given)
inactive: endpoint: mean survival time, dose: 100.0 mg/kg/injection, schedule: Q01DX009 (sc), vehicle: steriod suspending solution 114 % of control | endpoint: mean survival time, dose: 100.0 mg/kg/injection, schedule: Q04DX003 (sc), vehicle: steriod suspending solution 117 % of control | endpoint: mean survival time, dose: 200.0 mg/kg/injection, schedule: Q01DX009 (sc), vehicle: steriod suspending solution 101 % of control | endpoint: mean survival time, dose: 200.0 mg/kg/injection, schedule: Q04DX003 (sc), vehicle: steriod suspending solution 97 % of control | endpoint: mean survival time, dose: 400.0 mg/kg/injection, schedule: Q01DX009 (sc), vehicle: steriod suspending solution 95 % of control | endpoint: mean survival time, dose: 400.0 mg/kg/injection, schedule: Q04DX003 (sc), vehicle: steriod suspending solution 101 % of control

CSCC#N
inactive: endpoint: mean survival time, dose: 100.0 mg/kg/injection, schedule: Q01DX001 (ip), vehicle: saline with Tween-80 93 % of control | endpoint: mean survival time, dose: 200.0 mg/kg/injection, schedule: Q01DX001 (ip), vehicle: saline with Tween-80 96 % of control | endpoint: mean survival time, dose: 400.0 mg/kg/injection, schedule: Q01DX001 (ip), vehicle: saline with Tween-80 96 % of control

Nc1nc(-c2ccccc2N=NN2CCOCC2)nc2ccccc12
inactive: [1] 101 % of control | [2] 103 % of control | endpoint: mean survival time, dose: 400.0 mg/kg/injection, schedule: Q04DX003 (ip), vehicle: Klucel (hydroxypropylcellulose) (HPC) 101 % of control

Nc1nc(N)nc(-c2ccccn2)n1
inactive: endpoint: mean survival time, dose: 12.5 mg/kg/injection, schedule: Q01DX009 (ip), vehicle: saline with Tween-80 105 % of control | endpoint: mean survival time, dose: 25.0 mg/kg/injection, schedule: Q01DX009 (ip), vehicle: saline with Tween-80 92 % of control | endpoint: mean survival time, dose: 50.0 mg/kg/injection, schedule: Q01DX009 (ip), vehicle: saline with Tween-80 105 % of control

Cc1ccc(Nc2c3ccccc3nc3ccccc23)cc1
inactive: endpoint: mean survival time, dose: 18.0 mg/kg/injection, schedule: Q01DX009 (ip), vehicle: saline with Tween-80 100 % of control | endpoint: mean survival time, dose: 37.5 mg/kg/injection, schedule: Q01DX009 (ip), vehicle: saline with Tween-80 110 % of control | endpoint: mean survival time, dose: 40.0 mg/kg/injection, schedule: Q04DX003 (ip), vehicle: saline with Tween-80 96 % of control | endpoint: mean survival time, dose: 65.0 mg/kg/injection, schedule: Q04DX003 (ip), vehicle: saline with Tween-80 106 % of control | endpoint: mean survival time, dose: 75.0 mg/kg/injection, schedule: Q01DX001 (ip), vehicle: saline 100 % of control (2×) and 105 % of control | endpoint: mean survival time, dose: 75.0 mg/kg/injection, schedule: Q01DX009 (ip), vehicle: saline with Tween-80 113 % of control | endpoint: mean survival time, dose: 75.0 mg/kg/injection, schedule: Q04DX003 (ip), vehicle: saline with Tween-80 100 % of control | endpoint: mean survival time, dose: 95.0 mg/kg/injection, schedule: Q04DX003 (ip), vehicle: saline with Tween-80 123 % of control | endpoint: mean survival time, dose: 150.0 mg/kg/injection, schedule: Q01DX001 (ip), vehicle: saline 118 % of control | endpoint: mean survival time, dose: 150.0 mg/kg/injection, schedule: Q04DX003 (ip), vehicle: saline with Tween-80 107 % of control and 88 % of control | endpoint: mean survival time, dose: 225.0 mg/kg/injection, schedule: Q04DX003 (ip), vehicle: saline with Tween-80 118 % of control

Oc1cccc2ccc3ccc4ccccc4c3c12
inactive: endpoint: mean survival time, dose: 87.5 mg/kg/injection, schedule: Q04DX003 (ip), vehicle: Klucel (hydroxypropylcellulose) (HPC) 93 % of control | endpoint: mean survival time, dose: 175.0 mg/kg/injection, schedule: Q04DX003 (ip), vehicle: Klucel (hydroxypropylcellulose) (HPC) 93 % of control | endpoint: mean survival time, dose: 350.0 mg/kg/injection, schedule: Q04DX003 (ip), vehicle: Klucel (hydroxypropylcellulose) (HPC) 95 % of control

C=C(Cl)CNC(=O)c1ccc([N+](=O)[O-])cc1
inactive: [1] 98 % of control | [2] 104 % of control

COc1ccc(OC(=O)Nc2ccccc2C(F)(F)F)cc1
inactive: endpoint: mean survival time, dose: 100.0 mg/kg/injection, schedule: Q01DX009 (ip), vehicle: saline with Tween-80 98 % of control | endpoint: mean survival time, dose: 200.0 mg/kg/injection, schedule: Q01DX009 (ip), vehicle: saline with Tween-80 107 % of control | endpoint: mean survival time, dose: 400.0 mg/kg/injection, schedule: Q01DX009 (ip), vehicle: saline with Tween-80 102 % of control

Cc1cc2c(cc1C)N(C(=O)CCl)CCN2C(=O)CCl
inactive: endpoint: mean survival time, dose: 5.0 mg/kg/injection, schedule: Q01DX Z (ip), vehicle: carboxymethylcellulose (CMC) 97 % of control | endpoint: mean survival time, dose: 10.0 mg/kg/injection, schedule: Q01DX Z (ip), vehicle: carboxymethylcellulose (CMC) 105 % of control | [3] 100 % of control | [4] 104 % of control | [5] 98 % of control | [6] 98 % of control

C1CCC2CC3CCCCC3CC2C1 (stereo not given)
inactive: [4] 90 % of control | [6] 102 % of control

O=C(CC(O)(C(F)(F)F)C(F)(F)F)c1ccccc1Br
inactive: [7] 97 % of control | [8] 97 % of control | [9] 95 % of control

O=COCC1CC2C=CC1C2 (stereo not given)
inactive: endpoint: mean survival time, dose: 222.0 mg/kg/injection, schedule: Q01DX Z (ip), vehicle: saline 98 % of control | endpoint: mean survival time, dose: 333.0 mg/kg/injection, schedule: Q01DX Z (ip), vehicle: saline 102 % of control | endpoint: mean survival time, dose: 500.0 mg/kg/injection, schedule: Q01DX Z (ip), vehicle: saline 97 % of control

CCCCN(C)N=Nc1ccc(C(N)=O)cc1
inactive: [3] 98 % of control | endpoint: mean survival time, dose: 40.0 mg/kg/injection, schedule: Q01DX Z (ip), vehicle: carboxymethylcellulose (CMC) 101 % of control | endpoint: mean survival time, dose: 60.0 mg/kg/injection, schedule: Q01DX Z (ip), vehicle: carboxymethylcellulose (CMC) 104 % of control

Nc1nc(CCc2ccc(NC(=O)CBr)cc2)c(CCCCc2ccccc2)c(=O)[nH]1
inactive: endpoint: mean survival time, dose: 50.0 mg/kg/injection, schedule: Q01DX001 (ip), vehicle: saline 104 % of control | [4] 102 % of control | [5] 96 % of control | [6] 110 % of control

CCC(C)COC(=O)Nc1cccc(OC(=O)NC)c1 (stereo not given)
inactive: [7] 97 % of control | [8] 102 % of control | [9] 102 % of control

COc1ccc(OC)c2c1C(=O)CC2C (stereo not given)
inactive: endpoint: mean survival time, dose: 100.0 mg/kg/injection, schedule: Q01DX009 (ip), vehicle: saline 100 % of control | endpoint: mean survival time, dose: 100.0 mg/kg/injection, schedule: Q04DX003 (ip), vehicle: saline 96 % of control | endpoint: mean survival time, dose: 200.0 mg/kg/injection, schedule: Q01DX009 (ip), vehicle: saline 96 % of control | endpoint: mean survival time, dose: 200.0 mg/kg/injection, schedule: Q04DX003 (ip), vehicle: saline 96 % of control | endpoint: mean survival time, dose: 400.0 mg/kg/injection, schedule: Q04DX003 (ip), vehicle: saline 91 % of control

CCCCCN1CCCC(OC(=O)N(C)C)C1 (stereo not given)
inactive: endpoint: mean survival time, dose: 25.0 mg/kg/injection, schedule: Q04DX002 (ip), vehicle: saline 106 % of control | endpoint: mean survival time, dose: 50.0 mg/kg/injection, schedule: Q04DX002 (ip), vehicle: saline 103 % of control | endpoint: mean survival time, dose: 100.0 mg/kg/injection, schedule: Q04DX002 (ip), vehicle: saline 86 % of control

Cc1ccc(Cl)cc1NC(=O)c1ccccc1F
inactive: endpoint: mean survival time, dose: 100.0 mg/kg/injection, schedule: Q04DX002 (ip), vehicle: Klucel (hydroxypropylcellulose) (HPC) 93 % of control | endpoint: mean survival time, dose: 200.0 mg/kg/injection, schedule: Q04DX002 (ip), vehicle: Klucel (hydroxypropylcellulose) (HPC) 97 % of control | endpoint: mean survival time, dose: 400.0 mg/kg/injection, schedule: Q04DX002 (ip), vehicle: Klucel (hydroxypropylcellulose) (HPC) 101 % of control
